The values below come from patent US20220089540A1 (Board of Trustees of Michigan State University, priority 2019, published 2022).

In one data set the test system is Lung Cancer Model. The data set is described as follows: Lung cancer model rank order. The class given is in vivo.
Data set [1] is described as follows: Triglycerides in rodent models. It counts as in vivo.
A further data set relates to SREBP. As to the kind of experiment: SREBP induction in human liver (HepG2) cells, RT-PCR. The class given is cell-based. The note with it: fold induction compared to DMSO; several values per cell; Table 6. As to the method:
The SREBP transcription factor is involved in triglyceride synthesis, and its activation correlates with increased triglycerides in vivo. […] Lower numbers indicate better safety. […] Lower numbers indicate better safety. Also, for Table 6, SREBP activation was measured as fold induction compared to DMSO, where a lower value indicates the compound is an improvement over a control.

Data set [2] relates to inducible nitric oxide synthase (iNOS). The data set is described as follows: iNOS suppression / NO assay in LPS-stimulated macrophages or RAW264.7 cells (Griess reaction). The class given is cell-based, mouse. The note with it: Mus musculus, RAW264.7, 24 h, percent of the LPS-stimulated control, lower is better, Table 6; for activity at 0.1 µM: at 100 nM; for activity at 0.3 µM: at 300 nM, read-out: iNOS suppression. As to the method: Macrophages or RAW264.7 like-cells were treated with various concentrations of rexinoids and stimulated with lipopolysaccaride (LPS) to activate inducible nitric oxide synthase (iNOS) to produce nitric oxide. This in vitro iNOS assay was rapid, reproducible, quantitative and predictive. Nitric oxide is implicated in the apoptosis of cancer cells via regulation of RXRs. There is a tight correlation between the % reduction of iNOS and efficacy in preclinical lung cancer models. Lower numbers indicate higher efficacy.
RAW264.7 cells were incubated with 300 nM rexinoids and stimulated with 1-2 ng/ml lipopolysaccaride (LPS) for 24 hours to activate inducible nitric oxide synthase (iNOS) to produce nitric oxide. Nitric oxide released into the media was measured by the Griess reaction.
Also, for Table 6, the iNOS suppression is the percent of the LPS-stimulated control where the compounds were measured at 100 nM or 300 nM.
Macrophages or RAW264.7 cells were treated with various concentrations of rexinoids listed in Table 7 and stimulated with lipopolysaccaride (LPS) to activate inducible nitric oxide synthase (iNOS) to produce nitric oxide. Nitric oxide (NO) is implicated in the apoptosis of cancer cells via regulation of RXRs. There is a tight correlation between the % reduction of iNOS and efficacy in preclinical lung cancer models. The in vitro iNOS assay is rapid, reproducible, quantitative and predictive, as NO production is measured in culture medium using the Griess reaction. Values are either presented as % inhibition or IC50 values.
(In general: Nitrite, measured by Griess reagent, commonly stands in for NO production.)

The target in the next data set is T1, human RXRa (Homo sapiens, UniProt P19793).
T1 sequence (P19793 1-462): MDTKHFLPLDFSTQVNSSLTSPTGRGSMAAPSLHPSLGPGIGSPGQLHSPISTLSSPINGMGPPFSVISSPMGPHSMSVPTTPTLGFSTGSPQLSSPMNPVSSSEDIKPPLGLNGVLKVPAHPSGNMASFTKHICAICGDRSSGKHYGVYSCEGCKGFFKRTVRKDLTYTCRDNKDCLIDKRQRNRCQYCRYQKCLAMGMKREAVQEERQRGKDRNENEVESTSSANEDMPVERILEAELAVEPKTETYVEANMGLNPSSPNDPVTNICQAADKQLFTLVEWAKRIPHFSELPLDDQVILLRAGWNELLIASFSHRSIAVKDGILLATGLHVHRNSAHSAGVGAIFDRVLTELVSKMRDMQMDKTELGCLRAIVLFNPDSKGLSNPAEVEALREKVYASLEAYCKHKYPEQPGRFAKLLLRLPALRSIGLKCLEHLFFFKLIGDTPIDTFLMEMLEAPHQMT
The data set is described as follows: RXR activation luciferase reporter assay. The note with it: Table 6; read-out: RXRα activation (EC50). The class given is cell-based. From the text:
Rexinoids are agonists for the retinoid X receptors (RXRs). In this assay, the human RXRa promoter is functionally linked to a luciferase reporter gene. Changes in luciferase expression served as a sensitive surrogate measure of RXR activity. Higher numbers indicate higher potency.

A short description of another data set: LogD at pH 7.4. It counts as physicochemical. Conditions: pH 7.4 buffer. As to the method: Note that for Table 6, Log D is the distribution constant, which is descriptor of the lipophilicity of a molecule. This was determined using an aqueous phase that was adjusted to pH 7.4 using a buffer.

Each structure is given as a SMILES string. Several values for one entry are separate records, joined by “and”; a condition that tells them apart may be missing. Equal entries are not always repeated.

As to `Cc1cc2c(cc1C1(c3ccc(C(=O)O)cn3)CC1)C(C)(C)CCC2(C)C` [drawing 95, reference compound], the “Lung Cancer Model Rank Order” value in the data set with Lung Cancer Model is reported as 1. In data set [1], the “Triglyccerides (Rodent Models)” value is reported as “Elevated”. Also, the SREBP activation with SREBP was 3.9 fold induction and 3.1 fold induction and 3.2 fold induction. Further, the activity at 0.1 µM in data set [2] fell in the range of 15 to 20%.

For the molecule `C/C(=C/C=C/C(C)=C/C(=O)O)c1cc(C(C)(C)C)cc(C(C)(C)C)c1OCC(F)F` [drawing 96], the “Lung Cancer Model Rank Order” value with Lung Cancer Model worked out at 4. Also, the “Triglyccerides (Rodent Models)” value in data set [1] is “No Elevation”. The same molecule registered an activity at 0.1 µM in data set [2] of 30 to 35%.

As for `Cc1cc2c(cc1C1(c3ncc(C(=O)O)cn3)CC1)C(C)(C)CCC2(C)C` [drawing 98, reference compound], at human RXRa, the EC50 (commonly the concentration giving half of the maximal effect) lay in the range of 25 to 50 nM. In the data set with Lung Cancer Model, the “Lung Cancer Model Rank Order” value was 3. For the same molecule, in data set [1], the “Triglyccerides (Rodent Models)” value was “Modest Elevation”. In the data set with SREBP, this molecule gave an SREBP activation of roughly 1.25 fold induction. Further, the activity at 0.1 µM in data set [2] is roughly 25%.

For `CCN(c1ccc(C(=O)O)cc1)c1cc(C(C)(C)C)cc(C(C)(C)C)c1` [drawing 104], the logD (commonly the decadic logarithm of the distribution of all forms, ionised or not, between an organic phase and buffer at a given pH) in “LogD at pH 7.4” was determined as 4. Besides, the SREBP activation in the data set on SREBP was 1.8 fold induction and 2.5 fold induction. The activity at 0.3 µM in data set [2] amounted to 43%.

Regarding `CCN(c1cc(C(C)(C)C)cc(C(C)(C)C)c1)c1ccc(C(=O)O)cn1` [drawing 105], the logD in “LogD at pH 7.4” turned out to be 2.9. For the same molecule, the SREBP activation in the data set on SREBP is 1.6 fold induction and 2.85 fold induction and 3.1 fold induction. Further, the activity at 0.3 µM in data set [2] was 30%.

Regarding `CCN(c1cc(C(C)(C)C)cc(C(C)(C)C)c1)c1ncc(C(=O)O)cn1` [drawing 106], the logD in “LogD at pH 7.4” turned out to be 2.3. Moreover, the SREBP activation in the data set with SREBP was 3.5 fold induction and 1.8 fold induction. Moreover, the activity at 0.3 µM in data set [2] was 55%.

Molecule `C=C(c1ccc(C(=O)O)cc1)c1ccc(OCC(C)C)c(C(C)C)c1` [drawing 110] displayed a logD in “LogD at pH 7.4” of 3. For the same molecule, the SREBP activation with SREBP came out at 2 fold induction. In data set [2], the activity at 0.3 µM is 75%.

In the case of `C=C(c1ccc(C(=O)O)cc1)c1cc(C(C)C)c(OCC(C)C)cc1C` [drawing 111], the logD in “LogD at pH 7.4” is 3.5. In addition, the SREBP activation with SREBP was determined as 1.2 fold induction. In addition, the activity at 0.3 µM in data set [2] amounted to 40%.

Molecule `C=C(c1ccc(C(=O)O)cc1)c1cc(C(C)C)c(OC(C)C)cc1C` [drawing 114] yielded a logD in the data set “LogD at pH 7.4” of 3.1. This molecule registered an SREBP activation with SREBP of 4.7 fold induction. In data set [2], the activity at 0.3 µM turned out to be 40%.

In “LogD at pH 7.4”, `C=C(c1ccc(C(=O)O)cc1)c1cc(C(C)C)c(OCC)cc1C` [drawing 115] came in with a logD of 2.6. The molecule also registered an SREBP activation with SREBP of 1.4 fold induction. In addition, in data set [2], the activity at 0.3 µM was found to be 45%.

In the case of `C=C(c1ccc(C(=O)O)cc1)c1cc(C(C)(C)C)cc(C(C)(C)C)c1` [drawing 116], the logD in “LogD at pH 7.4” was 3.8. The activity at 0.3 µM in data set [2] was 61%.

Molecule `CCCN(c1cc(C(C)(C)C)cc(C(C)(C)C)c1)c1ccc(C(=O)O)cn1` [drawing 117] registered a logD in “LogD at pH 7.4” of 3.4. The SREBP activation in the data set with SREBP is 1.95 fold induction and 2.9 fold induction. Moreover, in data set [2], the activity at 0.1 µM is 22% and the activity at 0.3 µM amounted to 13%.

The molecule `CC(C)(C)c1cc(N(CC2CC2)c2ccc(C(=O)O)cn2)cc(C(C)(C)C)c1` [drawing 118] returned a log distribution coefficient (logD) in “LogD at pH 7.4” of 3.4. Further, in data set [2], the activity at 0.1 µM is 19% and the activity at 0.3 µM turned out to be 13%.

Molecule `CCN(c1cc(C(F)(F)F)cc(C(F)(F)F)c1)c1ccc(C(=O)O)cn1` [drawing 119] showed a logD in “LogD at pH 7.4” of 1.5. In the data set with SREBP, the SREBP activation was 0.95 fold induction and 1.2 fold induction. In data set [2], the activity at 0.1 µM turned out to be 24% and the activity at 0.3 µM was 15%.

As to `CCN(c1ccc(C(=O)O)cc1)c1cc(C(C)C)c(OCC(C)C)cc1C` [drawing 120], the logD in the data set “LogD at pH 7.4” was found to be 3.8. For the same molecule, the SREBP activation in the data set with SREBP was 1.3 fold induction. The activity at 0.3 µM in data set [2] stood at 86%.

In the data set “LogD at pH 7.4”, `CCN(c1ccc(C(=O)O)cc1)c1cc(C(C)(C)C)c(OC)c(C(C)(C)C)c1` [drawing 121] registered a logD of 3.8. In the data set on SREBP, this molecule displayed an SREBP activation of 1.45 fold induction. Further, in data set [2], the activity at 0.3 µM came out at 74%.

Take `CC(/C=C/[C@@H]1C[C@]1(C)c1cc2c(cc1C)C(C)(C)CCC2(C)C)=C\C(=O)O` [reference compound]: the EC50 on human RXRa is 1 to 25 nM. In addition, the “Lung Cancer Model Rank Order” value in the data set on Lung Cancer Model worked out at 2. In addition, the “Triglyccerides (Rodent Models)” value in data set [1] is recorded as “Elevated”. In the data set on SREBP, this molecule returned an SREBP activation of roughly 3.6 fold induction. The molecule also had an activity at 0.1 µM in data set [2] of 15 to 20%.

Consider `CCN(c1ccc(OCC(C)C)c(C(C)C)c1)c1ccc(C(=O)O)cn1` [reference compound], for which, at human RXRa, the EC50 lay in the range of 50 to 200 nM. Moreover, in data set [1], the “Triglyccerides (Rodent Models)” value is reported as “Modest elevation in female rats”.

`Cc1cc2c(cc1-n1c(C(F)(F)F)nc3cc(C(=O)O)ccc31)C(C)(C)CCC2(C)C` [reference compound]: the EC50 on human RXRa was in the range of 1 to 25 nM. In data set [1], the “Triglyccerides (Rodent Models)” value is on record as “No elevation (mice)”.

With `CCN(c1ccc2c(c1)C(C)(C)CCC2(C)C)c1ccc(C(=O)O)cn1` [reference compound], the EC50 at human RXRa was in the range of 1 to 25 nM. The “Triglyccerides (Rodent Models)” value in data set [1] is reported as “Elevated (mice)”.
